Values after ≈ are worked out from the molar mass of the structure shown. Where two headings read alike, the source gives them in different places.
Tests used:
in vivo = conditions: mouse, iv
Lewis lung carcinoma = test: Tumor growth inhibition against solid tumors (Lewis lung carcinoma); conditions: for Tumor growth inhibition: i.v., days 1, 5 and 9, day 13
P 388 leukemia [1] = test: animal or person; type: in vivo, CDF1 mice; conditions: for ED (T/C 130%): Mus musculus, P388, iv, read-out: Dose for T/C = 130%
P 388 leukemia [2] = test: animal or person; type: in vivo, CDF1 mice; conditions: for ED (T/C 130%): Mus musculus, P388, po, read-out: Dose for T/C = 130%
P388 leukemia = test: Antitumor activity against P388 leukemia in mice, i.p. administration (T/C, therapeutic index); type: in vivo, CDF1 mice; conditions: for ED (T/C 130%): Mus musculus, P388, ip, read-out: Dose for T/C = 130 %
[3] = tested on: Adriamycin-resistant P 388 leukemia cells (P 388/ADR); test: cells; type: cell-based; conditions: for IC50: Mus musculus, P388, 48 h, read-out: IC50 P388/ADR; for R/S: mouse, 2880 min
[4] = comp. data from Japanese Patent Application Laid-Open Pub. No. 76896/1980; cited from earlier work
P 388 leukemia [5] = conditions: known from the art; cited from earlier work
[6] = mouse, in vivo, iv, 2 mg/kg/day
[7] = mouse, in vivo, iv, 4 mg/kg/day
[8] = mouse, in vivo, iv, 8 mg/kg/day
[9] = mouse, in vivo, iv, 16 mg/kg/day
[10] = mouse, in vivo, iv, 32 mg/kg/day
[11] = mouse, in vivo, po, 4 mg/kg/day
[12] = mouse, in vivo, po, 8 mg/kg/day
[13] = mouse, in vivo, po, 16 mg/kg/day
[14] = mouse, in vivo, po, 32 mg/kg/day
[15] = mouse, in vivo, ip, 4 mg/kg/day
[16] = mouse, in vivo, ip, 8 mg/kg/day
[17] = mouse, in vivo, ip, 16 mg/kg/day
[18] = mouse, in vivo, ip, 0.5 mg/kg/day
[19] = mouse, in vivo, ip, 1 mg/kg/day
[20] = mouse, in vivo, ip, 2 mg/kg/day
[21] = mouse, in vivo, ip, 12 mg/kg/day
[22] = mouse, in vivo, iv, 1 mg/kg/day
[23] = mouse, in vivo, po, 1 mg/kg/day
[24] = mouse, in vivo, po, 2 mg/kg/day

For CCC1(O)Cc2cc3c(c(O)c2C(OC2CC(N4CCOCC4)C(O)C(C)O2)C1)C(=O)c1c(O)cccc1C3=O (stereo not shown) [3'-deamino-3'-(4-morpholinyl)-R20Y5], the LD50 (in vivo) was 65 mg/kg, the “antitumor activity against solid tumors (in words)” value (Lewis lung carcinoma; Lewis lung carcinoma) was “antitumor activity comparable to or better than that of Adriamycin against solid tumors” and the Tumor growth inhibition (Lewis lung carcinoma; 4 mg/kg/day) was 9.6%. The Tumor growth inhibition (Lewis lung carcinoma; 8 mg/kg/day) was 31.0%, the Tumor growth inhibition (Lewis lung carcinoma; 16 mg/kg/day) was 66.6% and the Tumor growth inhibition (Lewis lung carcinoma; 32 mg/kg/day) was 91.7%. The ED (T/C 130%) (P 388 leukemia [1]) was 4.9 mg/kg/day, the T/C (P 388 leukemia [1]; [6]) was 104 and the T/C (P 388 leukemia [1]; [7]) was 123. For the same molecule, the T/C (P 388 leukemia [1]; [8]) was 148, the T/C (P 388 leukemia [1]; [9]) was 182 and the T/C (P 388 leukemia [1]; [10]) was greater than 240. The ED (T/C 130%) (P 388 leukemia [2]) was 4.3 mg/kg/day, the T/C (P 388 leukemia [2]; [11]) was 127 and the T/C (P 388 leukemia [2]; [12]) was 154. For the same molecule, the T/C (P 388 leukemia [2]; [13]) was 191, the T/C (P 388 leukemia [2]; [14]) was 263 and the T/C (P 388 leukemia [2]; mouse, in vivo, po, 64 mg/kg/day) was 238. The ED (T/C 130%) (P388 leukemia) was 6.2 mg/kg/day, the “antitumor activity compared with R20Y5 (in words)” value (P388 leukemia; comparison with R20Y5 of Japanese Laid-Open 76896/1980) was “antitumor activity of R20Y5 can be remarkably increased by 3'-deamino-3'-4-morpholinylation” and the T/C (P388 leukemia; [15]) was 104. It also gave a T/C (P388 leukemia; [16]) of 146, a T/C (P388 leukemia; [17]) of 175 and a T/C (P388 leukemia; mouse, in vivo, ip, 32 mg/kg/day) of 219. The T/C (P388 leukemia; mouse, in vivo, ip, 64 mg/kg/day) was 93.
Molecule COc1cccc2c1C(=O)c1c(O)c3c(c(O)c1C2=O)C[C@@](O)(C(=O)CO)C[C@@H]3O[C@H]1C[C@H](N)[C@H](O)[C@H](C)O1 [Adriamycin, reference compound] has a Tumor growth inhibition (Lewis lung carcinoma; 1 mg/kg/day) of 34.5%, a Tumor growth inhibition (Lewis lung carcinoma; 2 mg/kg/day) of 14.1% and a Tumor growth inhibition (Lewis lung carcinoma; 4 mg/kg/day) of 64.2%. The Tumor growth inhibition (Lewis lung carcinoma; 8 mg/kg/day) was 72.8%, the IC50 [3] was 0.35 µg/mL (≈ 0.644 µM) and the R/S [3] was 29.2. It also gave an ED (T/C 130%) (P388 leukemia) of less than 0.25 mg/kg/day, a T/C (P388 leukemia; [18]) of 177 and a T/C (P388 leukemia; [19]) of 191. For the same molecule, the T/C (P388 leukemia; [20]) was greater than 217, the T/C (P388 leukemia; [15]) was 204 and the T/C (P388 leukemia; [16]) was greater than 256. The T/C (P388 leukemia; [21]) was 194.
With CCC1(O)Cc2c(O)c3c(c(O)c2C(OC2CC(N4CCOCC4)C(O)C(C)O2)C1)C(=O)c1c(O)cccc1C3=O (stereo not shown) [3'-deamino-3'-(4-morpholinyl)-R20X] the LD50 (in vivo) was 12.3 mg/kg, the ED (T/C 130%) (P 388 leukemia [1]) was 2.5 mg/kg/day and the T/C (P 388 leukemia [1]; [22]) was 104. For the same molecule, the T/C (P 388 leukemia [1]; [6]) was 119, the T/C (P 388 leukemia [1]; [7]) was 155 and the T/C (P 388 leukemia [1]; [8]) was 151. It also gave a T/C (P 388 leukemia [1]; mouse, in vivo, iv, 12 mg/kg/day) of 57, an ED (T/C 130%) (P 388 leukemia [2]) of 1.45 mg/kg/day and a T/C (P 388 leukemia [2]; [23]) of 111. It also gave a T/C (P 388 leukemia [2]; [24]) of 146, a T/C (P 388 leukemia [2]; [11]) of 170 and a T/C (P 388 leukemia [2]; [12]) of 214. For the same molecule, the T/C (P 388 leukemia [2]; [13]) was 219, the “toxicity to the heart at dosage level of maximum antitumor activity” value (heart; hamster, in vivo) was “not found to be toxic” and the ED (T/C 130%) (P388 leukemia) was 0.75 mg/kg/day. It also gave a T/C (P388 leukemia; [18]) of 104, a T/C (P388 leukemia; [19]) of 148 and a T/C (P388 leukemia; [20]) of 177. It also gave a T/C (P388 leukemia; [15]) of 218, a T/C (P388 leukemia; [16]) greater than 303 and a T/C (P388 leukemia; [21]) of 231.
In the case of CCC1(O)CC(OC2CC(N3CCOCC3)C(O)C(C)O2)c2c(O)c3c(c(O)c2C1O)C(=O)c1cccc(O)c1C3=O (stereo not shown) [3'-deamino-3'-(4-morpholinyl)-R20X2], the LD50 (in vivo) is reported as 3.55 mg/kg, the “Solubility: insoluble” value (Solubility; insoluble in) is reported as “insoluble in water, hexane, cyclohexane, diethyl ether, and petroleum ether” and the “Solubility: soluble” value (Solubility; soluble in) is reported as “Soluble in acidic water, basic water, methanol, ethanol, propanol, acetone, ethyl acetate, and chloroform”. The ED (T/C 130%) (P 388 leukemia [1]) was 0.43 mg/kg/day, the Therapeutic index (P 388 leukemia [1]; mouse, in vivo, iv) was 4.7 and the T/C (P 388 leukemia [1]; mouse, in vivo, iv, 0.25 mg/kg/day) was 109. It also gave a T/C (P 388 leukemia [1]; mouse, in vivo, iv, 0.5 mg/kg/day) of 136, a T/C (P 388 leukemia [1]; [22]) of 154 and a T/C (P 388 leukemia [1]; [6]) of 204. It also gave a T/C (P 388 leukemia [1]; [7]) of 194, a T/C (P 388 leukemia [1]; [8]) of 35 and an ED (T/C 130%) (P 388 leukemia [2]) of 0.58 mg/kg/day. For the same molecule, the Therapeutic index (P 388 leukemia [2]; mouse, in vivo, po) was 3.4, the T/C (P 388 leukemia [2]; mouse, in vivo, po, 0.25 mg/kg/day) was 109 and the T/C (P 388 leukemia [2]; mouse, in vivo, po, 0.5 mg/kg/day) was 120. It also gave a T/C (P 388 leukemia [2]; [23]) of 164, a T/C (P 388 leukemia [2]; [24]) of 228 and a T/C (P 388 leukemia [2]; [11]) of 103. For the same molecule, the IC50 [3] was 0.011 µg/mL (≈ 0.0188 µM), the R/S [3] was 1.22 and the “toxicity to the heart at dosage level of maximum antitumor activity” value (heart; dosage level T/C=max) was “not found to be toxic”. For the same molecule, the ED (T/C 130%) (P388 leukemia) was 0.35 mg/kg/day, the Therapeutic index (P388 leukemia; mouse, in vivo, ip) was 5.7 and the T/C (P388 leukemia; mouse, in vivo, ip, 0.25 mg/kg/day) was 112. For the same molecule, the T/C (P388 leukemia; [18]) was 150, the T/C (P388 leukemia; [19]) was 186 and the T/C (P388 leukemia; [20]) was greater than 246. It also gave a T/C (P388 leukemia; [15]) greater than 158.
In the case of CCC1(O)Cc2cc3c(c(O)c2C(OC2CC(N)C(O)C(C)O2)C1)C(=O)c1c(O)cccc1C3=O (stereo not shown) [R20Y5, 11-deoxy-13-deoxocarminomycin], the LD50 [4] is given as 15 mg/kg.
In the case of CC[C@@]1(O)C[C@H](O[C@H]2C[C@H](N(C)C)[C@H](O[C@H]3C[C@H](O)[C@H](O[C@H]4CCC(=O)[C@H](C)O4)[C@H](C)O3)[C@H](C)O2)c2c(cc3c(c2O)C(=O)c2c(O)cccc2C3=O)[C@H]1C(=O)OC [Aclacinomycin, reference compound], the “effectiveness by oral administration (in words)” value (P 388 leukemia [5]) is listed as “effective in the case of oral administration”, the “Dose for T/C = 130%” value (P 388 leukemia [1]; mouse, in vivo, iv) is listed as 12.4 mg/kg/day and the Therapeutic index (P 388 leukemia [1]; mouse, in vivo, iv) is listed as 2.6. The T/C (P 388 leukemia [1]; [7]) was 121, the T/C (P 388 leukemia [1]; [8]) was 119 and the T/C (P 388 leukemia [1]; [9]) was 151. The T/C (P 388 leukemia [1]; [10]) was 177, the T/C (P 388 leukemia [1]; mouse, in vivo, iv, 64 mg/kg/day) was 35 and the “Dose for T/C = 130%” value (P 388 leukemia [2]; mouse, in vivo, po) was 15 mg/kg/day. The Therapeutic index (P 388 leukemia [2]; mouse, in vivo, po) was 2.1, the T/C (P 388 leukemia [2]; [12]) was 119 and the T/C (P 388 leukemia [2]; [13]) was 131. For the same molecule, the T/C (P 388 leukemia [2]; [14]) was 154, the “IC50 P388/ADR” value [3] was 0.025 µg/mL (≈ 0.0308 µM) and the R/S [3] was 1.92. The “Dose for T/C = 130%” value (P388 leukemia; mouse, in vivo, ip) was 4.4 mg/kg/day, the Therapeutic index (P388 leukemia; mouse, in vivo, ip) was 3.6 and the T/C (P388 leukemia; [20]) was 111. It also gave a T/C (P388 leukemia; [15]) of 126, a T/C (P388 leukemia; [16]) of 155 and a T/C (P388 leukemia; [17]) of 182.

— patent US4710564A, “Anthracycline compounds” (Microbial Chemistry Research Foundation, priority 1985, dated 1987)
